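Five concentrations, 48 hours, 96-well plates. GI50 marks 50% less growth.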 Calls of active or inactive are those of the source. Cut-off read from the data, not from the text of the source: active = GI50 up to about 1.1 µM and inactive = higher. Some results are limits rather than exact numbers.

What all share (test): inhibition of tumour cell growth, NCI panel, 48 h
Assay [1] has as its system UACC-257.
Assay [2] deals with BT-549.
Assay [3] concerns MDA-MB-231.
The test system of assay [4] is SNB-75.
For assay [5], the system named is UACC-62.
The subject of assay [6] is CAKI-1.
The test system of assay [7] is HCT-15.
Assay [8] relates to Hs-578T.
The subject of assay [9] is SK-MEL-2.
In assay [10] the test system is M14.
The test system of assay [11] is Malme-3M.
Assay [12] deals with TK-10.
Assay [13] relates to HCC 2998.
Assay [14] relates to A498.
Assay [15] relates to OVCAR-4.
Assay [16] concerns DU-145.
Assay [17] has as its system COLO 205.
Assay [18] has as its system OVCAR-8.
In assay [19] the test system is HOP-62.
Assay [20] deals with MDA-MB-435.

For `Nc1ccc2c(c1)C(=O)c1ccccc1-2`, the GI50 in [1] is > 100 µM (inactive); in assay [2], 34 µM (inactive); in assay [3], > 100 µM (inactive); in assay [4], > 100 µM (inactive); in assay [5], > 100 µM (inactive); in assay [6], 56.5 µM (inactive). In addition, the GI50 in [7] is 95.5 µM; in assay [8], > 100 µM (inactive); in [9], > 100 µM (inactive); in [10], 57.4 µM (inactive); in assay [11] it was > 100 µM (inactive); in assay [12], > 100 µM (inactive). Moreover, the GI50 in assay [13] was 93.3 µM (inactive); in [14], 49 µM (inactive); in assay [15] it was > 100 µM (inactive); in assay [16], > 100 µM (inactive); in assay [17], 91.4 µM (inactive); in assay [18], 54.8 µM (inactive). Besides, the GI50 in assay [19] and in assay [20] was > 100 µM (inactive) throughout.

On to `Cc1ccc(Cc2n[nH]c(=O)n2N2C(=O)c3ccccc3C2=O)cc1`, for which the GI50 in assay [1] is > 100 µM (inactive); in [2] it was > 100 µM (inactive); in [3] it was > 100 µM (inactive); in assay [4] it was 91.4 µM (inactive); in [5], > 100 µM (inactive); in [6], > 100 µM (inactive). Besides, the GI50 is above 100 µM in assay [7]; > 100 µM (inactive) in assay [8]; > 100 µM (inactive) in assay [9]; > 100 µM (inactive) in assay [10]; > 100 µM (inactive) in [11]; > 100 µM (inactive) in assay [12]. Moreover, the GI50 in assay [13], in assay [14], in [15], in assay [16], in assay [17] and in assay [18] was > 100 µM (inactive) each time. Also, the GI50 in [19] and in assay [20] was > 100 µM (inactive) throughout.

Take `CC(=O)Oc1cc2c(n(C)c1=O)-c1ccccc1C2`: the GI50 was > 100 µM (inactive) in assay [1]; 46.1 µM (inactive) in assay [2]; 61.4 µM (inactive) in [3]; > 100 µM (inactive) in assay [4]; 75.3 µM (inactive) in assay [5]; 29.1 µM (inactive) in assay [6]. The GI50 in [7] is 28.1 µM; in assay [8], 65 µM (inactive); in assay [9], > 100 µM (inactive); in assay [10], 93.3 µM (inactive); in assay [11] it was 31.8 µM (inactive); in assay [12], 51.8 µM (inactive). The GI50 in assay [13] is 85.9 µM (inactive); in [14], 97.7 µM (inactive); in assay [15] it was 32.5 µM (inactive); in [16] it was > 100 µM (inactive); in assay [17] it was 39.4 µM (inactive); in assay [18], 32 µM (inactive). Moreover, the GI50 in assay [19] was 81.7 µM (inactive); in [20] it was > 100 µM (inactive).

`Cc1[nH]c2ccccc2c1/C=N/NC(=O)c1cccc(I)c1`: the GI50 in assay [1] is 23.7 µM (inactive); in assay [2], 21.9 µM (inactive); in [3], 16.7 µM (inactive); in [4] it was 22.4 µM (inactive); in [5], 17.8 µM (inactive); in assay [6] it was 18.2 µM (inactive). Also, the GI50 in assay [7] is 23.7 µM; in assay [8] it was 33.1 µM (inactive); in [9] it was 19.2 µM (inactive); in assay [10], 15 µM (inactive); in [11] it was 24.2 µM (inactive); in [12] it was 26.7 µM (inactive). In addition, the GI50 in [13] is 18.6 µM (inactive); in [14], 18.4 µM (inactive); in assay [15], 16.1 µM (inactive); in assay [16], 27.9 µM (inactive); in [17], 13.5 µM (inactive); in [18] it was 26.5 µM (inactive). Moreover, the GI50 is 17.6 µM (inactive) in assay [19] and 17.3 µM (inactive) in assay [20].

Take `COc1ccc(/C=N/n2c(Cc3ccc(Cl)cc3)n[nH]c2=O)c(OC)c1`: the GI50 in assay [1] is 41.1 µM (inactive); in assay [2], 35.2 µM (inactive); in [3], 52.5 µM (inactive); in [4] it was 15.9 µM (inactive); in assay [5], 24.9 µM (inactive); in assay [6] it was 45.4 µM (inactive). For the same molecule, the GI50 is 36.3 µM in [7]; 14.3 µM (inactive) in assay [8]; 53 µM (inactive) in assay [9]; 94.8 µM (inactive) in [10]; > 100 µM (inactive) in assay [11]; 18.2 µM (inactive) in assay [12]. The GI50 in assay [13] was 44.6 µM (inactive); in [14], 20.4 µM (inactive); in assay [15] it was 16 µM (inactive); in assay [16], 67.8 µM (inactive); in [17] it was > 100 µM (inactive); in assay [18], 33 µM (inactive). Moreover, the figures for the GI50 in assay [19] and in assay [20] were > 100 µM (inactive) and 36.8 µM (inactive), respectively.

`c1cc(-c2ccc(-c3ccc(C4=NCCCN4)cc3)o2)ccc1C1=NCCCN1`: the GI50 in assay [1] was 38.8 µM (inactive); in [2], 35.4 µM (inactive); in [3], > 100 µM (inactive); in assay [4], 43 µM (inactive); in assay [5], 19 µM (inactive); in [6] it was 74.1 µM (inactive). The GI50 in assay [7] is 90.8 µM; in assay [8] it was 98.6 µM (inactive); in [9], > 100 µM (inactive); in [10], 53.5 µM (inactive); in assay [11], 49.4 µM (inactive); in assay [12], 50.2 µM (inactive). Also, the GI50 in [13] is 92.9 µM (inactive); in assay [14], 2.24 µM (inactive); in assay [15] it was > 100 µM (inactive); in assay [16], 89.3 µM (inactive); in [17], 68.9 µM (inactive); in [18], 59.3 µM (inactive). Moreover, the values for the GI50 in [19] and in assay [20] were 47.8 µM (inactive) and 33.5 µM (inactive), respectively.

With `CCC(=S)N(C)O`, the GI50 in assay [1] is 50.9 µM (inactive); in assay [2], > 100 µM (inactive); in assay [3], 42.4 µM (inactive); in [4], 41 µM (inactive); in [5], 20 µM (inactive); in [6], 81.8 µM (inactive). The GI50 in assay [7] was 17 µM; in assay [8], > 100 µM (inactive); in assay [9] it was 29.4 µM (inactive); in [10], 17.8 µM (inactive); in assay [11] it was 53.5 µM (inactive); in assay [12], 60.1 µM (inactive). Besides, the GI50 was 55.6 µM (inactive) in assay [13]; 65.9 µM (inactive) in assay [14]; 9.53 µM (inactive) in assay [15]; 27.6 µM (inactive) in assay [16]; 0.634 µM (active) in [17]; 40.3 µM (inactive) in [18]. For the same molecule, the figures for the GI50 in assay [19] and in [20] were 43.5 µM (inactive) and 15.6 µM (inactive), respectively.

For `CCOC(=O)C(CS)NC(=O)CCCCCCCC(=O)O` (stereo not given), the GI50 in assay [1] is > 100 µM (inactive); in assay [2], > 100 µM (inactive); in assay [3], > 100 µM (inactive); in [4] it was 0.724 µM (active); in assay [5], > 100 µM (inactive); in [6], > 100 µM (inactive). Further, the GI50 in assay [7] was above 100 µM; in [8], > 100 µM (inactive); in [9] it was > 100 µM (inactive); in [10], > 100 µM (inactive); in assay [11] it was > 100 µM (inactive); in [12] it was > 100 µM (inactive). Besides, the GI50 in [13], in assay [14], in assay [15], in assay [16], in [17] and in assay [18] was > 100 µM (inactive) in each case. The GI50 in assay [19] and in assay [20] was > 100 µM (inactive) in each case.

For `C/C(CC(O)(C(F)(F)F)C(F)(F)F)=N\O`, the GI50 in [1], in assay [2], in assay [3], in assay [4], in [5] and in [6] was > 10 µM (inactive) each time. Also, the GI50 in [7] is above 10 µM; in assay [8], > 10 µM (inactive); in [9], > 10 µM (inactive); in assay [10] it was > 10 µM (inactive); in [11] it was > 10 µM (inactive); in assay [12], > 10 µM (inactive). The GI50 in assay [13], in assay [14], in assay [15], in assay [16], in assay [17] and in assay [18] was > 10 µM (inactive) in each case. For the same molecule, the GI50 in assay [19] and in assay [20] was > 10 µM (inactive) throughout.

Regarding `COc1ccc(NS(=O)(=O)c2ccc(NC(NC(=O)CC(C)C)(C(F)(F)F)C(F)(F)F)cc2)nn1`, the GI50 in assay [1], in assay [2], in assay [3], in assay [4], in assay [5] and in assay [6] was > 100 µM (inactive) throughout. Further, the GI50 in assay [7] is above 100 µM; in assay [8], > 100 µM (inactive); in [9], > 100 µM (inactive); in assay [10], > 100 µM (inactive); in [11] it was > 100 µM (inactive); in assay [12], > 100 µM (inactive). Besides, the GI50 in assay [13], in assay [14], in [15], in [16], in [17] and in assay [18] was > 100 µM (inactive) throughout. Further, the GI50 in [19] and in assay [20] was > 100 µM (inactive) each time.
